Results: patent US7563791B2, “Pyrrolotriazine derivatives useful for treating hyper-proliferative disorders and diseases associated with angiogenesis” (Bayer Pharmaceuticals Corporation, priority 2004, dated 2009)

Columns and labels:
Format in all cases: cell-based
HCT116 cells = assay: Tumor cell proliferation (Alamar Blue), HCT116; conditions: Homo sapiens, HCT-116, 72 h
Method: (§1) Human tumor cells (e.g., HCT116 or MDA-MB-231 cells), are seeded in a Costar 96-well plate at 3.0×10^3 cells/well and grown in 150 μl of RPMI complete media (Invitrogen Corporation, Grand Island, N.Y.) containing 10% fetal bovine serum (Hyclone, Logan, Utah) at 37° C. for 16 h in an incubator with 5% CO2. To each well, 50 μl of additional growth media containing 40 μM to 18 nM concentrations of compound with 0.4% DMSO is added. Cells are grown for another 72 h at 37° C. with 5% CO2. 20 μl of Alamar Blue (Trek Diagnostic Systems, Inc., Cleveland, Ohio) reagent is added to each well and incubated for 3 h at 37° C. Plates are read in a SpectraMax Gemini (Molecular Devices, Calif.) with 544 nm excitation and 590 nm emission wavelength. IC50 values are determined by linear regression analysis of log drug concentration versus percent inhibition.

MDA-MB-231 cells = assay: Tumor cell proliferation (Alamar Blue), MDA-MB-231; conditions: Homo sapiens, MDA-MB-231, 72 h
Method: as §1

[1] = test system: VEGF stimulated Phospho-ERK in HUVEC; assay: Growth factor stimulated p-ERK assay in HUVECs (VEGF stimulation, ERK1/2 Bioplex); conditions: Homo sapiens, compound 2 hrs, then 50 ng/ml VEGF 10 min; for inhibition at 0.1 µM: @ 100 nM
Method: Growth Factor Stimulated p-ERK assay in HUVECs
Exponentially growing human endothelial HUVECs cells (human umbilical vein endothelial cells, cat# CC-2517, Cambrex, Walkersville, Md.) were seeded at twenty five thousand cells/well in 96 well plates in EBM-2 MV medium with growth factors (cat# CC-3202, Cambrex) and grown at 37° C. in 5% CO2. Sixteen hours post-plating, the cells were changed to serum-free medium (RPMI 1640 containing 0.1% BSA (bovine serum albumin) and compounds were added at different concentrations for 2 hrs, after which the cells were stimulated for 10 min with 50 ng/ml of either VEGF (vascular endothelial growth factor, Protein Sciences, Meriden, Conn.) or bFGF (basic fibroblast growth factor cat# PHG0026, Biosource International, Camarillo, Calif.). The rest of the assay was performed per manufacturer indications for the ERK½ Bioplex assay (cat#171-304004, Bio-Rad, Hercules, Calif.). After removing culture medium by aspiration, the cells were quickly rinsed with 100 μl of cell wash buffer A to stop treatment reaction. Eighty microliters of cell lysis buffer were then immediately added to each well of the 96 well plate which was put on ice. Cells in each well were lysed by pipetting up and down 5 times with a multi-channel pipet. The plate was then agitated on a microtiter plate shaker at 300 rpm for 20 min at 4° C. Cellular debris were pelleted by centrifugation at 4500 g for 15 min at 4° C. and the supernatant was collected. Forty five microliters of supernatant was diluted with an equal volume of Bio-Plex phosphoprotein assay Buffer B, The coupled and color coated beads were added into a 96 well filter plate, and the prepared lysates were added. The beads and lysate mixture was incubated at room temperature for 15-18 hrs. The following day, the plate was vacuum-filtered and then washed 3×. Twenty-five microliters of detection antibody solution were added to each well and the plate was then incubated for 30 min at room temperature. The plate was then vaccum-filtered and washed as described previously. Fifty microliters of streptavidin-PE solution was added to each well, the plate was incubated for 10 min at room temperature and then was then vaccum-filtered and washed as described above. One hundred twenty-five microliters of resuspension buffer was added to each well and data were acquired on the Luminex 100 instrument (Bio-Rad).

| IC50 (HCT116 cells; bounds given in μM) | IC50 (MDA-MB-231 cells; bounds given in μM) | SMILES | inhibition at 0.1 µM [1] | inhibition at 1 µM [1] | also measured |
| --- | --- | --- | --- | --- | --- |
| < 1.5 µM |  | Nc1ncnn2cc(-c3cnco3)c(-c3ccc(NC(=O)Nc4cc(C(F)(F)F)ccn4)cc3)c12 [Example 156, N-{4-[4-amino-6-(1,3-oxazol-5-yl)pyrrolo[2,1-f][1,2,4]triazin-5-yl]phenyl}-N′-[4-(trifluoromethyl)pyridin-2-yl]urea] |  |  | IC50 (HCT116 cells): > 0.5 µM; IC50 (MDA-MB-231 cells): < 0.5 µM |
| 1.5 to 5 µM | 1.5 to 5 µM | CCOC(=O)c1cn2ncnc(N)c2c1-c1ccc(NC(=O)Nc2cc(C(F)(F)F)ccn2)c(F)c1 [Example 242, ethyl 4-amino-5-{3-fluoro-4-[({[4-(trifluoromethyl)pyridin-2-yl]amino}carbonyl)amino]phenyl}pyrrolo[2,1-f][1,2,4]triazine-6-carboxylate] |  |  |  |
| 1.5 to 5 µM | 1.5 to 5 µM | COCc1cn2ncnc(N)c2c1-c1ccc(NC(=O)Nc2cc(C(F)(F)F)ccc2F)c(F)c1 [Example 254, N-{4-[4-amino-6-(methoxymethyl)pyrrolo[2,1-f][1,2,4]triazin-5-yl]-2-fluorophenyl}-N′-[2-fluoro-5-(trifluoromethyl)phenyl]urea] |  |  |  |
|  | < 1.5 µM | Nc1ncnn2cc(-c3ncco3)c(-c3ccc(NC(=O)Nc4cc(C(F)(F)F)ccn4)cc3)c12 [Example 235, N-{4-[4-amino-6-(1,3-oxazol-2-yl)pyrrolo[2,1-f][1,2,4]triazin-5-yl]phenyl}-N′-[4-(trifluoromethyl)pyridin-2-yl]urea] |  |  | IC50 (HCT116 cells): < 0.5 µM; IC50 (MDA-MB-231 cells): > 0.5 µM |
|  |  | CCOC(=O)c1cn2ncnc(N)c2c1-c1ccc(NC(=O)Nc2cc(C(C)(C)C)nn2-c2ccc(F)cc2)cc1 [Example 25, ethyl 4-amino-5-{4-[({[3-tert-butyl-1-(4-fluorophenyl)-1H-pyrazol-5-yl]amino}carbonyl)amino]phenyl}pyrrolo[2,1-f][1,2,4]triazine-6-carboxylate] |  |  | IC50 (HCT116 cells): < 0.5 µM; IC50 (MDA-MB-231 cells): < 0.5 µM |
| 1.5 to 5 µM | < 1.5 µM | CC(C)(CN1CCOCC1)NC(=O)c1cn2ncnc(N)c2c1-c1ccc(NC(=O)Nc2cc(C(F)(F)F)ccc2Cl)cc1 [Example 149, 4-amino-5-{4-[({[2-chloro-5-(trifluoromethyl)phenyl]amino}carbonyl)amino]phenyl}-N-(1,1-dimethyl-2-morpholin-4-ylethyl)pyrrolo[2,1-f][1,2,4]triazine-6-carboxamide] |  |  | IC50 (MDA-MB-231 cells): > 0.5 µM |
| < 1.5 µM | 1.5 to 5 µM | Nc1ncnn2cc(-c3nc(CO)co3)c(-c3ccc(NC(=O)Nc4cc(C(F)(F)F)ccc4F)cc3)c12 [Example 241, N-(4-{4-amino-6-[4-(hydroxymethyl)-1,3-oxazol-2-yl]pyrrolo[2,1-f][1,2,4]triazin-5-yl}phenyl)-N′-[2-fluoro-5-(trifluoromethyl)phenyl]urea] |  |  | IC50 (HCT116 cells): > 0.5 µM |
|  |  | CCOC(=O)c1cn2ncnc(N)c2c1-c1ccc(NC(=O)Nc2ccccc2OC(F)(F)F)cc1 [Example 8, ethyl 4-amino-5-{4-[({[2-(trifluoromethoxy)phenyl]amino}carbonyl)amino]phenyl}pyrrolo[2,1-f][1,2,4]triazine-6-carboxylate] | > 50% |  |  |
|  |  | Nc1ncnn2cc(CNCCC(F)(F)F)c(-c3ccc(NC(=O)Nc4cc(C(F)(F)F)ccc4F)cc3)c12 [Example 39, N-[4-(4-amino-6-{[(3,3,3-trifluoropropyl)amino]methyl}pyrrolo[2,1-f][1,2,4]triazin-5-yl)phenyl]-N′-[2-fluoro-5-(trifluoromethyl)phenyl]urea] | < 50% | > 50% |  |
|  |  | CCOC(=O)c1cn2ncnc(N)c2c1-c1ccc(NC(=O)Nc2ccccc2C(C)C)cc1 [Example 24, ethyl 4-amino-5-[4-({[(2-isopropylphenyl)amino]carbonyl}amino)phenyl]pyrrolo[2,1-f][1,2,4]triazine-6-carboxylate] | < 50% | > 50% |  |
|  |  | CCOC(=O)c1cn2ncnc(N)c2c1-c1ccc(NC(=O)Nc2ccc3c(c2)OC(F)(F)O3)cc1 [Example 14, ethyl 4-amino-5-[4-({[(2,2-difluoro-1,3-benzodioxol-5-yl)amino]carbonyl}amino)phenyl]pyrrolo[2,1-f][1,2,4]triazine-6-carboxylate] | < 50% | < 50% | inhibition at 10 µM [1]: > 50% |
|  |  | CCOC(=O)c1cn2ncnc(N)c2c1-c1ccc(NC(=O)Nc2cc(C(C)(C)C)nn2C)cc1 [Example 49, ethyl 4-amino-5-[4-({[(3-tert-butyl-1-methyl-1H-pyrazol-5-yl)amino]carbonyl}amino)phenyl]pyrrolo[2,1-f][1,2,4]triazine-6-carboxylate] | > 50% |  |  |
|  |  | COCCNCc1cn2ncnc(N)c2c1-c1ccc(NC(=O)Nc2cc(C(F)(F)F)ccc2F)cc1 [Example 32, N-[4-(4-amino-6-{[(2-methoxyethyl)amino]methyl}pyrrolo[2,1-f][1,2,4]triazin-5-yl)phenyl]-N′-[2-fluoro-5-(trifluoromethyl)phenyl]urea] | > 50% |  |  |
|  |  | COCCN1CCN(Cc2cn3ncnc(N)c3c2-c2ccc(NC(=O)Nc3cc(C(F)(F)F)ccc3F)cc2)CC1 [Example 41, N-[4-(4-amino-6-{[4-(2-methoxyethyl)piperazin-1-yl]methyl}pyrrolo[2,1-f][1,2,4]triazin-5-yl)phenyl]-N′-[2-fluoro-5-(trifluoromethyl)phenyl]urea] | < 50% | > 50% |  |
|  | < 1.5 µM | Nc1ncnn2cc(CO)c(-c3ccc(NC(=O)Nc4cc(C(F)(F)F)ccc4F)c(F)c3)c12 [Example 251, N-{4-[4-amino-6-(hydroxymethyl)pyrrolo[2,1-f][1,2,4]triazin-5-yl]-2-fluorophenyl}-N′-[2-fluoro-5-(trifluoromethyl)phenyl]urea] |  |  | IC50 (MDA-MB-231 cells): > 0.5 µM |
| 5 to 10 µM |  | COCCN(C)C(=O)c1cn2ncnc(N)c2c1-c1ccc(NC(=O)Nc2ccc(F)c(C(F)(F)F)c2)cc1 [Example 84, 4-amino-5-{4-[({[4-fluoro-3-(trifluoromethyl)phenyl]amino}carbonyl)amino]phenyl}-N-(2-methoxyethyl)-N-methylpyrrolo[2,1-f][1,2,4]triazine-6-carboxamide] |  |  |  |
|  |  | Nc1ncnn2cc(C(=O)NCC3CCCO3)c(-c3ccc(NC(=O)Nc4cc(C(F)(F)F)ccc4F)cc3)c12 (stereo not shown) [Example 146, 4-amino-5-{4-[({[2-fluoro-5-(trifluoromethyl)phenyl]amino}carbonyl)amino]phenyl}-N-(tetrahydrofuran-2-ylmethyl)pyrrolo[2,1-f][1,2,4]triazine-6-carboxamide] | < 50% | > 50% |  |
|  |  | CN(C)CCNCc1cn2ncnc(N)c2c1-c1ccc(NC(=O)Nc2cc(C(F)(F)F)ccc2F)cc1 [Example 37, N-{4-[4-amino-6-({[2-(dimethylamino)ethyl]amino}methyl)pyrrolo[2,1-f][1,2,4]triazin-5-yl]phenyl}-N′-[2-fluoro-5-(trifluoromethyl)phenyl]urea] | < 50% | > 50% |  |
|  |  | CCOC(=O)c1cn2ncnc(N)c2c1-c1ccc(NC(=O)Nc2ccc(Cl)c(Cl)c2)cc1 [Example 18, ethyl 4-amino-S-[4-({[(3,4-dichlorophenyl)amino]carbonyl}amino)phenyl]pyrrolo[2,1-f][1,2,4]triazine-6-carboxylate] | < 50% | < 50% | inhibition at 10 µM [1]: > 50% |
|  |  | Nc1ncnn2cc(C(=O)NCC(F)(F)F)c(-c3ccc(NC(=O)Nc4ccnc(C(F)(F)F)c4)cc3)c12 [Example 140, 4-amino-N-(2,2,2-trifluoroethyl)-5-{4-[({[2-(trifluoromethyl)pyridin-4-yl]amino}carbonyl)amino]phenyl}pyrrolo[2,1-f][1,2,4]triazine-6-carboxamide] | < 50% | < 50% | inhibition at 10 µM [1]: > 50% |
